These results are taken from US10231939B2, “Hydroxytyrosol and oleuropein compositions for induction of DNA damage, cell death and LSD1 inhibition” (priority 2012, dated 2019).

Each structure is given as a SMILES string.

Usually EC50 stands for the concentration needed to bring the measured effect to its halfway point. A higher EC50 goes with weaker potency.

Holding throughout (assay): Cell proliferation (Cell Titer-Blue Assay)
Background: Resazurin is reduced to fluorescent resorufin, in cell work by metabolically active cells.

One test has as its system PBMC. In kind it is cell-based, human. Particulars: for cell proliferation of PBMC: 120 hours incubation; for EC50: Homo sapiens, 24 hr. The method, then:
Human peripheral blood mononuclear cells (PBMCs) were fractionated using the Ficoll Plaque fractionation method from whole blood obtained from the Australian Red Cross Blood Bank (ARCB) under ethic approval (#304/12). Cells were harvested fresh on the day of the experiments and maintained in complete-RPMI-1640 medium supplemented with 10% FBS, 2 mM L-glutamine and 20 μg/mL gentamicin at 37° C., 5% (v/v) CO2. Cell proliferation was determined using the Cell Titer-Blue Assay kit (Promega, Madison, Wis., USA). Cells were seeded at 10,000 cells per well in black flat bottom 96-well plates (Nalge Nunc, Penfield, N.Y., USA) and treated with serial doses of hydroxytyrosol (0-3200 μM) and oleuropein (0-12800 μM) for 24, 48 and 120 hours at 37° C., 5% (v/v) CO2. Following incubation with the test samples, Cell-Titer Blue reagent (20 μl per 100 μL) was added to each well and mixed gently for 5 sec prior to 4 hr incubation at 37° C. in a humidified atmosphere of 5% CO2. Fluorescence intensity (λex=550 nm and λem=615 nm) was determined using a Perkin Elmer Victor3 multilabel microplate counter (PerkinElmer, Waltham, Mass., USA). Data were expressed as % relative cell viability compared to untreated cells after correction of subtracting the media control fluorescence reading.

In a further test the test system is CEM-CCRF cells. In kind it is cell-based, human. Particulars: for EC50: Homo sapiens. The method, then:
(§1) Human acute T lymphoblast leukemic CEM-CCRF cells (ATTC NO. CCL-119), obtained from the ATCC were maintained in a Modified Eagle's Medium (α-MEM) supplemented with 2 mmol/L HEPES (pH 7.4; GIBCO-Invitrogen, Carlsbad, Calif., USA), 10% (v/v) FBS, 2 mmol/L L-glutamine (GIBCO-Invitrogen), and 80 units gentamicin (GIBCO-Invitrogen). Similarly, CEM-CCRF—P-glycoprotein (PGP)—over expressing, vinblastine derivative—R100 cells, expressing multi-drug resistance (MDR) were grown in a-MEM supplemented with 2 mmol/L HEPES (pH 7.4), 10% (v/v) FBS, 2 mmol/L L-glutamine, 80 units gentamicin and 100 ng/ml vinblastine. R100 cells were cultured in a-MEM/FBS/gentamicin media without vinblastine for 7 days prior to use in experiments. Cells were cultured in suspension in a humidified atmosphere of 5% (v/v) CO2 at 37° C. and were maintained in exponential growth phase. For maintenance, cells were passaged twice per week and seeded at ratios 1:10. Cell proliferation was determined using the Cell Titer-Blue Assay kit (Promega, Madison, Wis., USA). Cells were seeded at 10,000 cells per well in black flat bottom 96-well plates (Nalge Nunc, Penfield, N.Y., USA) and treated with serial doses of hydroxytyrosol (0-3200 μM) and oleuropein (0-12800 μM) for 24, 48 and 120 hours at 37° C., 5% (v/v) CO2. Following incubation with the test samples, Cell-Titer Blue reagent (20 μl per 100 μL) was added to each well and mixed gently for 5 sec prior to 4 hr incubation at 37° C. in a humidified atmosphere of 5% CO2. Fluorescence intensity (λex=550 nm and λem=615 nm) was determined using a Perkin Elmer Victor3 multilabel microplate counter (PerkinElmer, Waltham, Mass., USA). Data were expressed as % relative cell viability compared to untreated cells after correction of subtracting the media control fluorescence reading.

The subject of the next test is R100 cells. In kind it is cell-based, human. Particulars: for EC50: Homo sapiens. The method, then:
as §1

The subject of another test is SNU-16 cells. In kind it is cell-based. Conditions: Homo sapiens. From the text:
Human chronic myelogenous leukemia K562 cells (ATCC No. CCL-243), human large B-lymphocyte non-Hodgkin's lymphoma LCL cells, human leukemic monocyte lymphoma U937 cells (ATCC No. CRL-1593.2), human prostate adenocarcinoma PC3 (ATCC No. CRL-1435) and human gastric carcinoma SNU-16 cells (ATCC No. CRL-5974) were maintained in complete-[…] Park Memorial Institute (RPMI) 1640 medium supplemented with 20 mmol/L HEPES (pH 7.4; GIBCO-Invitrogen, Carlsbad, Calif., USA), 10% (v/v) fetal bovine serum (FBS), 2 mmol/L L-glutamine (GIBCO-Invitrogen), and 80 units gentamicin (GIBCO-Invitrogen). Cells were cultured in suspension in a humidified atmosphere of 5% (v/v) CO2 at 37° C. and were maintained in exponential growth phase. For maintenance, cells were passaged twice per week and seeded at ratios 1:10. Cell proliferation was determined using the Cell Titer-Blue Assay kit (Promega, Madison, Wis., USA). Cells were seeded at 10,000 cells per well in black flat bottom 96-well plates (Nalge Nunc, Penfield, N.Y., USA) and treated with serial doses of hydroxytyrosol (0-3200 μM) and oleuropein (0-12800 μM) for 24, 48 and 120 hours at 37° C., 5% (v/v) CO2. Following incubation with the test samples, Cell-Titer Blue reagent (20 μl per 100 μL) was added to each well and mixed gently for 5 sec prior to 4 hr incubation at 37° C. in a humidified atmosphere of 5% CO2. Fluorescence intensity (λex=550 nm and λem=615 nm) was determined using a Perkin Elmer Victor3 multilabel microplate counter (PerkinElmer, Waltham, Mass., USA). Data were expressed as % relative cell viability compared to untreated cells after correction of subtracting the media control fluorescence reading.

`OCCc1ccc(O)c(O)c1` [HT, 4-(2-hydroxyethyl)-1,2-benzenediol]: the figures for the “cell proliferation of PBMC” value in the test on PBMC and with PBMC (listed as hydroxytyrosol) were “increases the proliferation” and “attenuated”, respectively. Also, the EC50 amounted to 855 µM in the test on PBMC; 121 µM in the test with CEM-CCRF cells (24 hr); 100 µM with CEM-CCRF cells (48 hr); 42 µM with CEM-CCRF cells (120 hr); 190 µM with R100 cells (R100, 24 hr); 100 µM in the test with R100 cells (R100, 48 hr). The EC50 in the test with R100 cells (R100, 120 hr) is 40 µM; in the test with SNU-16 cells (SNU-16, 24 hr), 1100 µM; in the test with SNU-16 cells (SNU-16, 48 hr), 80 µM. Also, the “EC10 (concentration required to reduce the cell viability of the population to 10%)” value is 80 µM with CEM-CCRF cells (120 hr) and 86 µM with R100 cells (R100, 120 hr).

On to `C/C=C1/[C@H](O[C@@H]2O[C@H](CO)[C@@H](O)[C@H](O)[C@H]2O)OC=C(C(=O)OC)[C@H]1CC(=O)OCCc1ccc(O)c(O)c1` [OL, oleuropein], for which the EC50 with PBMC worked out at 2710 µM; in the test on CEM-CCRF cells (24 hr) it was 437 µM; with CEM-CCRF cells (48 hr) it was 1800 µM; in the test with CEM-CCRF cells (120 hr), 325 µM; in the test with R100 cells (R100, 24 hr), 320 µM; in the test on R100 cells (R100, 48 hr) it was 1000 µM. Besides, the EC50 in the test with R100 cells (R100, 120 hr) was found to be 250 µM; in the test on SNU-16 cells (SNU-16, 24 hr), 2820 µM; in the test on SNU-16 cells (SNU-16, 48 hr), 800 µM. For the same molecule, the “EC10 (concentration required to reduce the cell viability of the population to 10%)” value in the test on CEM-CCRF cells (120 hr) was determined as 700 µM; in the test with R100 cells (R100, 120 hr) it was 530 µM.
